From ChEMBL document CHEMBL1135217, “N-aryl 2,6-dimethoxybiphenylalanine analogues as VLA-4 antagonists” (Bioorg Med Chem Lett, 2002)

Tests used:
[1] = target: T1, Integrin alpha-4/beta-1 (Homo sapiens, UniProt P05556+P13612); test: In vitro inhibition of [125I]VCAM-Ig binding to very late antigen -4 on jurkat cells.; type: cell-based
[2] = target: T1, Integrin alpha-4/beta-1; test: Inhibition of [125I]-VCAM-Ig binding to very late antigen -4 (VLA-4) on Jurkat cells at 4 uM; type: cell-based
[3] = Bioavailability in rat (Sprague-Dawley); type: ADME, organism-based; settings: in vivo
[4] = species on record: Rattus norvegicus; test: Half-life was determined in Dawley rat; settings: in vivo
[5] = species on record: Rattus norvegicus; test: Volume of distribution at steady state in Dawley rat; settings: in vivo
[6] = Clearance in Dawley rat; type: ADME, organism-based; settings: Sprague-Dawley, plasma, read-out: Clp

T1 sequence (P05556 whole entry): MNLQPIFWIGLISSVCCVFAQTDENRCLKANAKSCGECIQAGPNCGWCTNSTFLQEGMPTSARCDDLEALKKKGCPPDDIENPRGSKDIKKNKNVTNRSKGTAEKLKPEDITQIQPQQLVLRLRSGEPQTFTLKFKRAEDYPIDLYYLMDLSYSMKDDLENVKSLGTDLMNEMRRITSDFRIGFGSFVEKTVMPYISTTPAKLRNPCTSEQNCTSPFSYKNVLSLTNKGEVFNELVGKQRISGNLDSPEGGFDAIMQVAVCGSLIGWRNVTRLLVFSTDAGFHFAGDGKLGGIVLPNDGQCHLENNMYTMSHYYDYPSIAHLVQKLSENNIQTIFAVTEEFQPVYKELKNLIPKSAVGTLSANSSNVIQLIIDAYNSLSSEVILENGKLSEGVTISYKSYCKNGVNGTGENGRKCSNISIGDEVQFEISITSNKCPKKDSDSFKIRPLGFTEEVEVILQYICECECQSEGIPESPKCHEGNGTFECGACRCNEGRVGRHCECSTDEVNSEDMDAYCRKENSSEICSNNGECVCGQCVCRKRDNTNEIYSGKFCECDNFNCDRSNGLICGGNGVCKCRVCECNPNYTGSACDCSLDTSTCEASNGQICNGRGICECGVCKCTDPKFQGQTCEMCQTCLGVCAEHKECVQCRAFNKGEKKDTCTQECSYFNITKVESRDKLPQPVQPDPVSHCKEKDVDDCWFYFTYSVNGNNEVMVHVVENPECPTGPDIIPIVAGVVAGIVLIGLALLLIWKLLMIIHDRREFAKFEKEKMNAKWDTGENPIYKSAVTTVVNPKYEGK
T1 sequence (P13612 whole entry): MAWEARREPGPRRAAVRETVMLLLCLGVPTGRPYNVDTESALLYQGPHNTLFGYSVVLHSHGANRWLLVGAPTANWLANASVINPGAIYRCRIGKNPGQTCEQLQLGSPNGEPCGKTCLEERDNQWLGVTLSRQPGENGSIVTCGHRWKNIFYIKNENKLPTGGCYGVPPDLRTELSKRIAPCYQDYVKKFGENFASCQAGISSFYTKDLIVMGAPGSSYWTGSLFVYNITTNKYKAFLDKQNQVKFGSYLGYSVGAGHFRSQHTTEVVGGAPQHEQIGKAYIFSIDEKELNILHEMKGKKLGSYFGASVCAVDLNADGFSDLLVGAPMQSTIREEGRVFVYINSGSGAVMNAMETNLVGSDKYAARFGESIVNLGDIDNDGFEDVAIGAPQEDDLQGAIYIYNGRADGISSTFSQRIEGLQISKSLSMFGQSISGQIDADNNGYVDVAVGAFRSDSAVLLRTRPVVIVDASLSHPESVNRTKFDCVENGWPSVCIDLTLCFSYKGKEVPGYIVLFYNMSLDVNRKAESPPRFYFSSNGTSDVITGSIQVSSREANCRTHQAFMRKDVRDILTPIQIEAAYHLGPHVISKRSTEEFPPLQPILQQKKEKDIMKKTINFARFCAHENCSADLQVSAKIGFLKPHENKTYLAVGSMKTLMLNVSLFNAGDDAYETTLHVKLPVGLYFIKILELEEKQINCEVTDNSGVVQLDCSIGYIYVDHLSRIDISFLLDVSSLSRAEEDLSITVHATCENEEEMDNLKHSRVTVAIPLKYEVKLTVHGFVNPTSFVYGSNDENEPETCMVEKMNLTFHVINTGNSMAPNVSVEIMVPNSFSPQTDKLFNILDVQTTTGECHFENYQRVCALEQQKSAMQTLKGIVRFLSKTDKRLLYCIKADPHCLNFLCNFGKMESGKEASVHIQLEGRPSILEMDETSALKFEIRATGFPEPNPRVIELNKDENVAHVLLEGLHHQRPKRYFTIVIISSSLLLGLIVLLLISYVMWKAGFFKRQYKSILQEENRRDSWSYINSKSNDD

| SMILES | IC50 [1] [nM] | further results |
| --- | --- | --- |
| COc1cccc(OC)c1-c1ccc(CC(Nc2ccc(C(F)(F)F)cn2)C(=O)O)cc1 (stereo not given) | 3190 |  |
| COc1cccc(OC)c1-c1ccc(CC(Nc2ccccc2[N+](=O)[O-])C(=O)O)cc1 (stereo not given) | 3550 |  |
| COc1cccc(OC)c1-c1ccc(CC(Nc2ccc(S(=O)(=O)N3CCCC3)cc2)C(=O)O)cc1 (stereo not given) | 91 |  |
| COc1cccc(OC)c1-c1ccc(CC(Nc2cccc(C#N)c2)C(=O)O)cc1 (stereo not given) | 4360 |  |
| COc1cccc(OC)c1-c1ccc(CC(Nc2ccc(C(F)(F)F)cc2)C(=O)O)cc1 (stereo not given) |  | inhibition [2]: 45% |
| CCCS(=O)(=O)c1cc(NC(Cc2ccc(-c3c(OC)cccc3OC)cc2)C(=O)O)ncn1 (stereo not given) | 0.39 | bioavailability [3]: 6%; T1/2 [4]: 48 min; Vdss [5]: 0.28 L/kg; clearance [6]: 17 mL/min/kg |
| COc1cccc(OC)c1-c1ccc(CC(NC(=O)c2ccccc2)C(=O)O)cc1 (stereo not given) | 1.2 |  |
| COc1cccc(OC)c1-c1ccc(CC(Nc2ccccn2)C(=O)O)cc1 (stereo not given) | 610 |  |
| COc1cccc(OC)c1-c1ccc(CC(Nc2cc(Cl)cc(Cl)c2)C(=O)O)cc1 (stereo not given) | 6490 |  |
| COc1cccc(OC)c1-c1ccc(CC(Nc2ccccc2)C(=O)O)cc1 (stereo not given) | 8870 |  |
| COc1cccc(OC)c1-c1ccc(CC(Nc2ccncc2)C(=O)O)cc1 (stereo not given) | 170 |  |
| COc1cccc(OC)c1-c1ccc(CC(Nc2ccc(C#N)cc2)C(=O)O)cc1 (stereo not given) | 4470 |  |
| COc1cccc(OC)c1-c1ccc(C[C@H](NC(C)=O)C(=O)O)cc1 | 12 |  |
| COc1cccc(OC)c1-c1ccc(CC(Nc2cc(C(F)(F)F)cc(C(F)(F)F)c2)C(=O)O)cc1 (stereo not given) |  | inhibition [2]: 46% |
| COc1cccc(OC)c1-c1ccc(CC(Nc2ccc(C(=O)N3CCCC3)cn2)C(=O)O)cc1 (stereo not given) | 23 |  |
| COc1cccc(OC)c1-c1ccc(CC(Nc2ccc([N+](=O)[O-])cc2)C(=O)O)cc1 (stereo not given) | 5250 |  |
| COc1cccc(OC)c1-c1ccc(CC(Nc2cccc(S(=O)(=O)N3CCCC3)c2)C(=O)O)cc1 (stereo not given) | 12 | bioavailability [3]: 24%; T1/2 [4]: 54 min; Vdss [5]: 0.55 L/kg; clearance [6]: 73 mL/min/kg |
| COc1cccc(NC(Cc2ccc(-c3c(OC)cccc3OC)cc2)C(=O)O)n1 (stereo not given) | 4180 |  |
| COc1cccc(OC)c1-c1ccc(CC(Nc2ccc(S(C)(=O)=O)cc2)C(=O)O)cc1 (stereo not given) | 97 |  |
| COc1cccc(OC)c1-c1ccc(CC(Nc2cccnc2)C(=O)O)cc1 (stereo not given) | 820 |  |
| COc1cccc(OC)c1-c1ccc(CC(Nc2ccc(S(=O)(=O)c3ccccc3)cc2)C(=O)O)cc1 (stereo not given) | 240 |  |
| COc1cccc(OC)c1-c1ccc(CC(Nc2ccc(C(=O)N3CCCC3)cc2)C(=O)O)cc1 (stereo not given) | 320 |  |
